Values quoted from earlier work as cited in patent US8524749B2, “Controlled release compositions of tizanidine” (ALZA Corporation, priority 2007, dated 2013).

Details: doses of 0.5-0.7 g/kg alcohol; comparison data

For `CCO` [alcohol], the “Peak impairment in Power of Attention, decrement compared to baseline” value is listed as “about 150 msec”.
